In patent US8445509B2, “Fused heterocyclic derivatives and use thereof” (Takeda Pharmaceutical Company Limited, priority 2008, dated 2013):

Tests used:
[1] = target: T1, VEGFR2 intracellular domain protein (Homo sapiens, UniProt P35968); assay: Vascular endothelial growth factor receptor 2 (VEGFR2) kinase inhibitory activity (AlphaScreen); type: biochemical
T1 construct: made in house; host or cells: SF-21 insect cells, recombinant baculovirus BAC-VEGFR2
Method: Human vascular endothelial growth factor receptor 2 (hereinafter to be referred to as VEGFR2) gene was cloned by PCR using cDNA Libraries Human Placenta (Clontech) as a template. […] The primer base sequence is shown below.
SF-21 cells were sown at 1×10^6 cells/mL to Sf-900II SFM medium (1 L, Invitrogen) containing 10% fetal bovine serum (trace), 50 mg/L Gentamicin (Invitrogen) and 0.1% Pluronic F-68 (Invitrogen), and shaking culture was performed using a 2 L volume Erlenmeyer flask at 27° C., 100 rpm. After culturing for 24 hrs, recombinant baculovirus BAC-VEGFR2 (13.4 mL) was added to the mixture, and the mixture was further cultured for 3 days. The culture medium was centrifuged at 2,000 rpm for 5 min to give virus-infected cells. The infected cells were washed with a phosphate buffered saline (Invitrogen), centrifuged under the same conditions, and the cells were preserved at −80° C. The cryopreserved cells were thawed in ice, suspended in buffer A (50 mM Tris buffer (30 mL, pH 7.4) containing 20% glycerol, 0.15 M NaCl) supplemented with Complete Protease Inhibitor (Boehringer), and ruptured 3 times with a Polytron homogenizer (Kinematica) at 20,000 rpm for 30 sec. The ruptured medium was clarified by centrifugation at 40,000 rpm for 30 min and filtered with a 0.45 μm filter. The filtrate was passed through a column packed with Anti-FLAG M2 Affinity Gel (4 mL, Sigma) at a flow rate of about 0.5 mL/min. The column was washed with buffer A, and eluted with buffer A containing 100 μg/mL of FLAG peptide. The eluate was concentrated with Vivaspin 20 (Vivascience) having a molecular weight cut off of 30K. The buffer of this concentrate was exchanged using NAP™ 25 column (Amersham Bioscience) equilibrated with buffer A. The fractions containing intracellular domain protein of VEGFR2 were collected, glycerol was added to the final concentration of 50% and cryopreserved at −80° C.
A test compound dissolved in dimethyl sulfoxide (DMSO) was diluted with a buffer (50 mM Tris-HCl (pH 7.5), 5 mM MgCl2, 5 mM MnCl2, 2 mM dithiothreitol, 0.01% Tween-20). To this compound solution (5 μL) was added a buffer (10 μL) containing 50 ng/mL of VEGFR2 intracellular domain protein and 250 ng/mL of biotin labeled polypeptide biotinyl-poly-Glu:Tyr (4:1) (CIS bio International). […] The reaction solution was allowed to stand at 25° C. for 16 hrs, and the wells were counted using a plate reader (Fusion™ (PerkinElmer)). The kinase inhibitory rate (%) of the test compound was calculated by the following formula: Inhibitory rate (%)=(1−(count of test compound−blank)÷(control−blank))×100
The count of the solution reacted without addition of the compound was used as a “control”, and the count of the solution without the compound and ATP was used as a “blank”.

[2] = system: Human umbilical vein-derived vascular endothelial cells (HUVEC); assay: Vascular endothelial cell proliferation inhibitory test (VEGF-stimulated HUVEC); type: cell-based; details: 120 h, 5 days of culture with VEGF
Outline: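 HUVEC (3000 cells/well) in medium with 3% FBS, cultured overnight, then given test substance plus VEGF (120 ng/mL in the added medium). After 5 days at 37 °C, Cell Counting Kit-8 was applied for 2-3 h and A450 read. IC50 relative to no-compound wells, by logistic nonlinear least-squares fit.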

[3] = target: T2, FLT3 intracellular domain protein (Homo sapiens, UniProt P36888); assay: Fms Like Tyrosine Kinase 3 (FLT3) kinase inhibitory activity (AlphaScreen); type: biochemical; details: for inhibition at 1 µM: 1 μM test compound, read-out: inhibitory rate (%) at 1 μM
T2 construct: 7.5 ng/ml of FLT3 intracellular domain protein (Millipore); purchased Millipore
T2 sequence (P36888 564-993 limits assumed): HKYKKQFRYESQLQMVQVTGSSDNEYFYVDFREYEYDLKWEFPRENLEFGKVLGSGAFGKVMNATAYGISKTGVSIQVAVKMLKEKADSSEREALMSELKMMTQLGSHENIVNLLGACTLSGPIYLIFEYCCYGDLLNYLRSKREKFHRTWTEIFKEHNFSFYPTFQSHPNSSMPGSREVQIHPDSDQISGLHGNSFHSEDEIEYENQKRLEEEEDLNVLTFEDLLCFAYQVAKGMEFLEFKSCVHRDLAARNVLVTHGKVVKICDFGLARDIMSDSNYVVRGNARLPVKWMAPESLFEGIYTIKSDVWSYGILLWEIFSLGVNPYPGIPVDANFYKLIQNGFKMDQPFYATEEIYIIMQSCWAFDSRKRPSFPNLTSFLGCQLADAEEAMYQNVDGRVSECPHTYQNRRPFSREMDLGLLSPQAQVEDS
Outline: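 FLT3 intracellular domain (7.5 ng/ml) and biotin-poly-Glu:Tyr (250 ng/mL), each as added, were preincubated 5 min with compound in Tris pH 7.5 with Mg²⁺, Mn²⁺, DTT and Tween-20. ATP was added (5 μM) for 10 min at 25 °C, then EDTA stop with streptavidin donor/anti-phosphotyrosine acceptor beads for 16 h. % inhibition was calculated against the no-compound control and the no-compound/no-ATP blank.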

T1 sequence (P35968 786-1356 limits assumed): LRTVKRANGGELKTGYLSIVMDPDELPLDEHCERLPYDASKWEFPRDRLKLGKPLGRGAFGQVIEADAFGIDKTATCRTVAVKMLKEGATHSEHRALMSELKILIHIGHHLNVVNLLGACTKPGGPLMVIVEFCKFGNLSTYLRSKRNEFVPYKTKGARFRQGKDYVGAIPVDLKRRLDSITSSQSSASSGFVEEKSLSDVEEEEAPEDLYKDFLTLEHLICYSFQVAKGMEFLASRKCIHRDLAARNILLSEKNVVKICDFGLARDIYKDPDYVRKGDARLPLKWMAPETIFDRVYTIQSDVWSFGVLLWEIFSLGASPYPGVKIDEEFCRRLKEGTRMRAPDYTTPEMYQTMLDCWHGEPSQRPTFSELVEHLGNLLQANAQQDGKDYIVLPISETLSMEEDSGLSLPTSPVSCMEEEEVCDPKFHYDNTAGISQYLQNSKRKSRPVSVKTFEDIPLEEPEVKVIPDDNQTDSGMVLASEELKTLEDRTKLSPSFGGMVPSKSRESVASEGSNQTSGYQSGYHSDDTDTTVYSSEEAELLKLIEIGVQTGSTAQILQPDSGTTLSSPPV

IC50 [1] [µM] | IC50 [3] [µM] | inhibition at 1 µM [3] [%] | SMILES | IC50 [2] [µM]
≤ 1 | ≤ 1 |  | Cc1ccc(C(=O)Nc2ccc(Oc3ccc4nc(NC(=O)C5CC5)cn4c3)cn2)[n+]([O-])c1-c1ccc(F)cc1 [Example 61, N-[5-({2-[(cyclopropylcarbonyl)amino]imidazo[1,2-a]pyridin-6-yl}oxy)pyridin-2-yl]-6-(4-fluorophenyl)-5-methylpyridine-2-carboxamide 1-oxide] | ≤ 2
≤ 1 | ≤ 1 |  | Cc1ccc(C(=O)Nc2ccc(Oc3ccc4nc(NC(=O)C5CC5)cn4c3)c(F)c2)c(=O)n1-c1cccc(F)c1 [Example 75, N-[4-({2-[(cyclopropylcarbonyl)amino]imidazo[1,2-a]pyridin-6-yl}oxy)-3-fluorophenyl]-1-(3-fluorophenyl)-6-methyl-2-oxo-1,2-dihydropyridine-3-carboxamide] | ≤ 2
≤ 1 | ≤ 1 |  | Cc1c(C(=O)Nc2ccc(Oc3ccc4nc(NC(=O)C5CC5)cn4c3)c(F)c2)c(=O)n(-c2ccc(F)cc2)n1C [Example 77, N-[4-({2-[(cyclopropylcarbonyl)amino]imidazo[1,2-a]pyridin-6-yl}oxy)-3-fluorophenyl]-2-(4-fluorophenyl)-1,5-dimethyl-3-oxo-2,3-dihydro-1H-pyrazole-4-carboxamide] | ≤ 2
≤ 1 | ≤ 1 |  | Cc1ccc(C(=O)Nc2ccc(Oc3ccc4nc(NC(=O)C5CC5)cn4c3)c(F)c2)[n+]([O-])c1-c1cccc(F)c1 [Example 93, N-[4-({2-[(cyclopropylcarbonyl)amino]imidazo[1,2-a]pyridin-6-yl}oxy)-3-fluorophenyl]-6-(3-fluorophenyl)-5-methylpyridine-2-carboxamide 1-oxide] | ≤ 2
≤ 1 | ≤ 1 |  | Cc1ccc(C(=O)Nc2ccc(Oc3ccc4nc(NC(=O)C5CC5)cn4c3)c(F)c2)c(=O)n1-c1ccc(F)c(F)c1 [Example 45, N-[4-({2-[(cyclopropylcarbonyl)amino]imidazo[1,2-a]pyridin-6-yl}oxy)-3-fluorophenyl]-1-(3,4-difluorophenyl)-6-methyl-2-oxo-1,2-dihydropyridine-3-carboxamide] | ≤ 2
≤ 1 | ≤ 1 |  | O=C(Nc1cn2cc(Oc3ccc(NC(=O)C4(C(=O)Nc5ccc(F)cc5)CC4)cc3F)ccc2n1)C1CC1 [Example 11, N-[4-({2-[(cyclopropylcarbonyl)amino]imidazo[1,2-a]pyridin-6-yl}oxy)-3-fluorophenyl]-N′-(4-fluorophenyl)cyclopropane-1,1-dicarboxamide] | ≤ 2
≤ 1 | ≤ 1 |  | Cc1cc(C(=O)Nc2ccc(Oc3ccc4nc(NC(=O)C5CC5)cn4c3)c(F)c2)c(=O)n(-c2ccc(F)cc2)c1C [Example 70, N-[4-({2-[(cyclopropylcarbonyl)amino]imidazo[1,2-a]pyridin-6-yl}oxy)-3-fluorophenyl]-1-(4-fluorophenyl)-5,6-dimethyl-2-oxo-1,2-dihydropyridine-3-carboxamide] | ≤ 2
≤ 1 | ≤ 1 |  | O=C(Nc1cn2cc(Oc3ccc(NC(=O)C4(C(=O)Nc5ccccc5)CC4)cc3F)ccc2n1)C1CC1 [Example 14, N-[4-({2-[(cyclopropylcarbonyl)amino]imidazo[1,2-a]pyridin-6-yl}oxy)-3-fluorophenyl]-N′-phenylcyclopropane-1,1-dicarboxamide] | ≤ 2
≤ 1 | ≤ 1 |  | Cc1ccc(C(=O)Nc2ccc(Oc3ccc4nc(NC(=O)C5CC5)cn4c3)cc2F)[n+]([O-])c1-c1ccc(F)cc1 [Example 84, N-[4-({2-[(cyclopropylcarbonyl)amino]imidazo[1,2-a]pyridin-6-yl}oxy)-2-fluorophenyl]-6-(4-fluorophenyl)-5-methylpyridine-2-carboxamide 1-oxide] | ≤ 2
≤ 1 | ≤ 1 | ≥ 50 | Cc1ccc(C(=O)Nc2ccc(Oc3ccc4nc(NC(=O)C5CC5)cn4c3)cc2)c(=O)n1-c1ccc(F)cc1 [Example 28, N-[4-({2-[(cyclopropylcarbonyl)amino]imidazo[1,2-a]pyridin-6-yl}oxy)phenyl]-1-(4-fluorophenyl)-6-methyl-2-oxo-1,2-dihydropyridine-3-carboxamide] | ≤ 2
≤ 1 | ≤ 1 |  | Cc1ccc(C(=O)Nc2ccc(Oc3ccc4nc(NC(=O)C5CC5)cn4c3)cc2)[n+]([O-])c1-c1ccc(F)cc1 [Example 72, N-[4-({2-[(cyclopropylcarbonyl)amino]imidazo[1,2-a]pyridin-6-yl}oxy)phenyl]-6-(4-fluorophenyl)-5-methylpyridine-2-carboxamide 1-oxide] | ≤ 2
≤ 1 | ≤ 1 | ≥ 50 | O=C(Nc1nc2ccc(Oc3ccc(NC(=O)C4(C(=O)Nc5ccccc5)CC4)cc3F)cc2s1)C1CC1 [Example 18, N-[4-({2-[(cyclopropylcarbonyl)amino]-1,3-benzothiazol-6-yl}oxy)-3-fluorophenyl]-N′-phenylcyclopropane-1,1-dicarboxamide] | ≤ 2
